Measurements taken from patent US10111877B2, “Modulators of androgen synthesis” (Tangent Reprofiling Limited, priority 2012, dated 2018).
Where two headings read alike, the source gives them in different places.

Tests used:
[1] = system: PC3 cells; experiment: Cell metabolism inhibition assay (Cell titre Blue) with fatty acids; format: cell-based; conditions: for Cellular Metabolic Activity: 100% = undrugged media
Description: A cell metabolism inhibition assay was performed to determine the effect of different fatty acids on cellular metabolic rate. The fatty acids tested were α-Linolenic acid, omega 3 fatty acid (ALA), Arachidonic acid, omega 6 fatty acid (AA), 9Z, 11E conjugated Linoleic acid, omega 7 fatty acid (CLA), Docosahexaenoic acid, omega 3 fatty acid (DHA), Eicosapentaenoic acid, omega 3 fatty acid (EPA), Oleic acid, omega 9 fatty acid (OA), Ricinoleic acid, omega 9 hydroxylated fatty acid (RA).
PC3 cells are from a cell line derived from a hormone refractory prostate cancer and are known to overexpress HSD10. PC3 cells were seeded at a density of 4,000 cells per well in a 96 well plate, and incubated at 37° C., 5% CO2 for 48 hours in standard growth media (F12K nutrient media, 7% Fetal Calf Serum, 2 mM L-Glutamine, 45 mg/L ascorbic acid). The media was then removed by pipette and replaced with the appropriate drug treatment as follows: 20 μM, or 40 μM, or 60 μM, or 80 μM, or 100 μM ALA in PC3 treatment media (F12K nutrient media, 125 uM fatty acid free BSA, 2 mM L-Glutamine, 45 mg/L ascorbic acid); 20 μM, or 40 μM, or 60 μM, or 80 μM, or 100 μM AA in PC3 treatment media; 20 μM, or 40 μM, or 60 μM, or 80 μM, or 100 μM CLA in PC3 treatment media; 20 μM, or 40 μM, or 60 μM, or 80 μM, or 100 μM DHA in PC3 treatment media; 20 μM, or 40 μM, or 60 μM, or 80 μM, or 100 μM EPA in PC3 treatment media; 20 μM, or 40 μM, or 60 μM, or 80 μM, or 100 μM OA in PC3 treatment media; and 20 μM, or 40 μM, or 60 μM, or 80 μM, or 100 μM RA in PC3 treatment media. After incubation in the drug treatment for 72 hours at 37° C., 5% CO2, 50 μL Cell titre Blue Assay Reagent was added to each well and the plate return to incubation at 37° C., 5% CO2, for a further 24 hours, at which time the absorbance at 620 nm was recorded. The reduction of absorbance at 620 nm represents a higher metabolic rate, and the data below has been normalized such that 100% represents cells that have been grown in the presence of undrugged media, and 0% represents wells containing no cells.

[2] = molecular target: T1, HSD10 (Homo sapiens, UniProt Q99714); experiment: HSD10 Enzyme Inhibition Assay; format: biochemical; conditions: 50 μM drug
T1 construct: endogenous in cells; host or cells: PC3 cells
T1 sequence (Q99714 1-261): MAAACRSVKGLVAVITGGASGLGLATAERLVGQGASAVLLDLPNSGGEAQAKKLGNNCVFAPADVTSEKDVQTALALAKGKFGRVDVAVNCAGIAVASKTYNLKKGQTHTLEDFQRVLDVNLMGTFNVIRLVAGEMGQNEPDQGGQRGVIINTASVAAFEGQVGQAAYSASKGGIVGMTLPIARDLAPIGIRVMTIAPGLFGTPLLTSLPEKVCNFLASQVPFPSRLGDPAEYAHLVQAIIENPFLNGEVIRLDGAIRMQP
Description: An HSD10 inhibition assay was performed to determine the effect of several anti-psychotics on enzyme activity.
(§1) PC3 cells are from a cell line derived from a hormone refractory prostate cancer and are known to overexpress HSD10. […] Cells line tests were carried out in presence and absence of testosterone for comparison. After incubation in the drug treatment for 96 hours at 37° C., 5% CO2, the supernatant was removed from all wells of cells, and cells washed with 200 μL PBS.
(§2) After removal of the PBS, cell number was determined using a lysed cell LDH assay (CytoTox 96 Non-radioactive cytotoxicity assay (LDH Assay); Promega, Co., Madison Wis.). Cells were lysed with 0.9% Triton-X in PBS for 2 hours at 37° C., 5% CO2 and 50 μL of this cell lysate was transferred to a fresh 96 well plate. About 50 μL of CytoTox 96 assay reagent was added to the transferred cell lysate and this mixture was incubated at room temperature in the dark for 20 minutes. After the addition of 50 μL stop reagent, the optical absorbance was determined for each incubated mixture at 492 nm. […] The mean and standard error was calculated from at least 3 wells.

[3] = system: PC3 cells; experiment: Cell growth inhibition, lysed cell LDH assay, prostate cancer cell line; format: cell-based; conditions: 96 hours, 100% = no drug treatment (Table 3);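 note: 100% is cells receiving no drug treatment and 0% is wells without cells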
Description: To determine whether Risperidone could be effective in inhibiting growth of cancer cells overexpressing HSD10, a lysed cell LDH assay was conducted using cells from a PC3 cell line.
as §1, §2
To determine the optimal concentration of Risperidone and CLA necessary to inhibit cell growth, a lysed cell LDH assay was conducted using various concentration of Risperidone and CLA. PC3 cells were cultured and a lysed cell LDH assay was conducted as described above, except that the various drug treatments evaluated contained either 0 μM, 12.5 μM, 25 μM, or 50 μM Risperidone in combination with 0 μM, 6.25 μM, 12.5 μM, 25 μM, 50 μM, or 100 μM CLA (see Table 3).
as §2, with “PBS from the cell cultures described above,” for “PBS,”, “assay.” for “assay (CytoTox 96 Non-radioactive cytotoxicity assay (LDH Assay); Promega, Co., Madison Wis.).”

[4] = system: PC-3M-luc cells; experiment: Orthotopic prostate tumor mouse xenograft model; conditions: single drug
Description: Immunodeficeint male mice (athymic nude mice) were acclimated to the laboratory for at least one week prior to implantation of tumor. PC-3M-luc cells obtained directly from in vitro culture were then injected into the prostate on Day 0. Animals were divided into six groups of 12 mice each. Primary tumor size and metastases were assessed by bioluminescence measurements on day 6, 13, 20, 27, 34, and 40. On day 7 a five week treatment regime was initiated. Both individual drug and high and low dose combination were examined by administering the drugs twice daily on an individual body weight basis using a dose escalation protocol (Table 7). If tumors grew above a pre-determined level, or mice lost more than 10% of bodyweight, they were culled. The primary tumor was excised, weighed and measured. Individual organs were imaged to assess metastatic burden.

[5] = system: BxPC-3 cells; experiment: Orthotopic pancreatic tumor mouse xenograft model; format: in vivo, mice (athymic nude mice); design: key to Pancreatic tumor weight, vs vehicle / Bioluminescence imaging Area, vs vehicle / Bioluminescence imaging Average radiation, vs vehicle / Bioluminescence imaging Total flux, vs vehicle / Bioluminescence imaging Area (day 34), vs vehicle / Bioluminescence imaging Average radiation (day 34), vs vehicle / Bioluminescence imaging Total flux (day 34), vs vehicle / Body weight curves, vs vehicle / Body weight at sacrifice relative to Day −1 body weight, vs vehicle: ***: statistically significant difference with p-value <0.001; **: p-value <0.01; *: p-value <0.05; p-value <0.1; NS: Non-Significant; conditions: 60 mg/kg intraperitoneal every third day
Description: Animals were divided into four groups of 10 mice each which underwent the following treatment regime: Group 1, daily oral administration of vehicle comprising 1% (v/v) ethanol, 20% (v/v) PEG 400, 79% (v/v) acid solution and 0.4% (w/v) TWEEN™ 80 at a final pH of 3.1-3.3 (Control); Group 2, intraperitoneal administration of 60 mg/kg of Reference Compound gemcitabine every third day for four rounds followed by one week rest before repeating the dosing; Group 3, daily oral administration of 1 mg/kg of Test Compound VAL401; and Group 4, daily administration of 2 mg/kg Test Compound VAL401. Administration of Test and Reference Compounds began on Day 1 and continued until Day 33. Body weights of the animals were measured two times a week throughout the in-life phase and blood samples for PK analyses were collected from saphenous vein from all animals 2 hours after compound administration at study Day 24. […] The animals were sacrificed at Day 34. At the termination, brain tissues were collected and frozen. Tumors were weighed, measured in three dimensions followed by fixation and embedding in paraffin for possible histopathological assessment. Also spleen, liver and lungs were collected for possible analysis.
Statistical analysis was performed with statistical software R (version 3.1.2). The parameters with multiple measurements in different time points per animal were analyzed using mixed-effects models and model contrasts. […] The obtained p-values values were adjusted for multiple comparisons if necessary. The continuous valued end-point parameters were analyzed using parametric or non-parametric test. If the groups were normally distributed with equal variance, parametric one-way ANOVA followed by Tukey's HSD post hoc test was used. If the assumptions were not fulfilled as such or after data transform (e.g. logarithmic), nonparametric Kruskal-Wallis test followed by Mann-Whitney U test was used.

[6] = read-out: Oxidative Activity Drug Inhibition
[7] = read-out: Reductive Activity Drug Inhibition

SMILES: CCCCC/C=C\C/C=C\C/C=C\C/C=C\CCCC(=O)O [AA, Arachidonic acid]
- Cellular Metabolic Activity ([1]; 20 μM fatty acid): 107 ± 3.9%
- Cellular Metabolic Activity ([1]; 40 μM fatty acid): 90 ± 5.6%
- Cellular Metabolic Activity ([1]; 60 μM fatty acid): 78 ± 6.4%
- Cellular Metabolic Activity ([1]; 80 μM fatty acid): 66 ± 7.2%
- Cellular Metabolic Activity ([1]; 100 μM fatty acid): 60 ± 5.9%

SMILES: CC/C=C\C/C=C\C/C=C\CCCCCCCC(=O)O [ALA, α-Linolenic acid]
- Cellular Metabolic Activity ([1]; 20 μM fatty acid): 118 ± 0.5%
- Cellular Metabolic Activity ([1]; 40 μM fatty acid): 118 ± 0.9%
- Cellular Metabolic Activity ([1]; 60 μM fatty acid): 118 ± 0.2%
- Cellular Metabolic Activity ([1]; 80 μM fatty acid): 117 ± 0.9%
- Cellular Metabolic Activity ([1]; 100 μM fatty acid): 114 ± 1.2%

SMILES: CN(C)CCCN1c2ccccc2Sc2ccc(Cl)cc21 [Chlorpromazine]
- Oxidative Activity Rate [2]: 7.7 µM/min
- Reductive Activity Rate [2]: 7.2 µM/min
- inhibition at 50 µM [2, 6]: 8%
- inhibition at 50 µM [2, 7]: 18%

SMILES: CN(C)CCCN1c2ccccc2CCc2ccc(Cl)cc21 [Clomipramine]
- Oxidative Activity Rate [2]: 2.3 µM/min
- Reductive Activity Rate [2]: 7.5 µM/min
- inhibition at 50 µM [2, 6]: 73%
- inhibition at 50 µM [2, 7]: 15%

SMILES: CN1CCN(C2=Nc3cc(Cl)ccc3Nc3ccccc32)CC1 [Clozapine]
- inhibition at 50 µM [2, 6]: 43%
- inhibition at 50 µM [2, 7]: 15%

SMILES: CC/C=C\C/C=C\C/C=C\C/C=C\C/C=C\C/C=C\CCC(=O)O [DHA, Docosahexaenoic acid]
- Cellular Metabolic Activity ([1]; 20 μM fatty acid): 90 ± 8.2%
- Cellular Metabolic Activity ([1]; 40 μM fatty acid): 74 ± 7.6%
- Cellular Metabolic Activity ([1]; 60 μM fatty acid): 58 ± 5.9%
- Cellular Metabolic Activity ([1]; 80 μM fatty acid): 49 ± 7.7%
- Cellular Metabolic Activity ([1]; 100 μM fatty acid): 34 ± 7.0%
- metabolic inhibition ([1]; 60-100 μM range): 40-65%
- Percentage of Lysed Cells ([3]; 12.5 μM of each drug): 109 ± 1.1%
- Percentage of Lysed Cells ([3]; 25 μM of each drug): 102 ± 3.5%
- Percentage of Lysed Cells ([3]; 50 μM of each drug): 95 ± 3.8%

SMILES: CN(C)CCOC(c1ccccc1)c1ccccc1 [Diphenhydramine]
- Oxidative Activity Rate [2]: 8.0 µM/min
- Reductive Activity Rate [2]: 8.3 µM/min
- inhibition at 50 µM [2, 6]: 5%
- inhibition at 50 µM [2, 7]: 6%

SMILES: CC(=O)O[C@@]12CO[C@@H]1C[C@H](O)[C@@]1(C)C(=O)[C@H](O)C3=C(C)[C@@H](OC(=O)[C@H](O)[C@@H](NC(=O)OC(C)(C)C)c4ccccc4)C[C@@](O)([C@@H](OC(=O)c4ccccc4)[C@H]21)C3(C)C [Docetaxel]
- body weight throughout the study ([4]; by Day 40): on a trend of losing weight
- Tumor Growth Inhibition ([4]; calculated on Day 34, dosing per Table 7): 94%
- Animal Survival (overall survivorship) ([4]; day 40, dosing per Table 7): 100%

SMILES: CC/C=C\C/C=C\C/C=C\C/C=C\C/C=C\CCCC(=O)O [EPA, Eicosapentaenoic acid]
- Cellular Metabolic Activity ([1]; 20 μM fatty acid): 94 ± 9.4%
- Cellular Metabolic Activity ([1]; 40 μM fatty acid): 71 ± 8.2%
- Cellular Metabolic Activity ([1]; 60 μM fatty acid): 67 ± 7.4%
- Cellular Metabolic Activity ([1]; 80 μM fatty acid): 49 ± 7.4%
- Cellular Metabolic Activity ([1]; 100 μM fatty acid): 37 ± 5.9%
- metabolic inhibition ([1]; 80-100 μM range): 50-65%

SMILES: Nc1ccn([C@@H]2O[C@H](CO)[C@@H](O)C2(F)F)c(=O)n1 [Gemcitabine, gemcitabine]
- Bioluminescence imaging Area (day 34), vs vehicle [5]: NS
- Bioluminescence imaging Area, vs vehicle [5]: NS
- Bioluminescence imaging Average radiation (day 34), vs vehicle [5]: NS
- Bioluminescence imaging Average radiation, vs vehicle [5]: NS
- Bioluminescence imaging Total flux (day 34), vs vehicle [5]: NS
- Bioluminescence imaging Total flux, vs vehicle [5]: NS
- Body weight at sacrifice relative to Day −1 body weight, vs vehicle [5]: NS
- Body weight curves, vs vehicle [5]: NS
- Pancreatic tumor volume, vs vehicle [5]: ↓**
- Pancreatic tumor weight, vs vehicle [5]: NS

SMILES: CCCCCCCC/C=C\CCCCCCCC(=O)O [OA, Oleic acid]
- Cellular Metabolic Activity ([1]; 20 μM fatty acid): 109 ± 2.7%
- Cellular Metabolic Activity ([1]; 40 μM fatty acid): 108 ± 0.9%
- Cellular Metabolic Activity ([1]; 60 μM fatty acid): 111 ± 2.2%
- Cellular Metabolic Activity ([1]; 80 μM fatty acid): 110 ± 2.2%
- Cellular Metabolic Activity ([1]; 100 μM fatty acid): 111 ± 2.0%

SMILES: CCCCCC[C@@H](O)C/C=C\CCCCCCCC(=O)O [RA, Ricinoleic acid]
- Cellular Metabolic Activity ([1]; 20 μM fatty acid): 91 ± 6.0%
- Cellular Metabolic Activity ([1]; 40 μM fatty acid): 94 ± 4.7%
- Cellular Metabolic Activity ([1]; 60 μM fatty acid): 90 ± 6.2%
- Cellular Metabolic Activity ([1]; 80 μM fatty acid): 90 ± 6.0%
- Cellular Metabolic Activity ([1]; 100 μM fatty acid): 94 ± 3.1%
